Laboratory results published in patent US20070049564A1 (Wyeth, priority 2005, published 2007).
In brackets after ≈: the same amount, converted by molar mass. Where two headings read alike, the source gives them in different places.

Key:
S. pyogenes GC 4563 = assay: MIC, broth microdilution; conditions: Streptococcus pyogenes
S. pneumoniae+ GC 4465 = assay: MIC, broth microdilution; conditions: Streptococcus pneumoniae
E. coli GC 2235 = assay: MIC, broth microdilution; conditions: Escherichia coli
Protocol: Antimicrobial susceptibility testing. The in vitro activities of the antibiotics are determined by the broth microdilution method as recommended by the National Committee for Clinical Laboratory Standards (NCCLS) (1). Mueller-Hinton II broth (MHBII)(BBL Cockeysville, Md.) is the medium employed in the testing procedures. Microtiter plates containing serial dilutions of each antimicrobial agent are inoculated with each organism to yield the appropriate density (10^5 CFU/ml) in a 100 μl final volume. The plates are incubated for 18-22 hours at 35° C. in ambient air.
Representative compounds were first incubated in mouse serum for an hour prior to the in vitro testing against a panel of selected gram-positive and gram-negative bacteria strains. All compounds were also pre-incubated in water for an hour prior to testing as control. Representative compounds of Formula I were incubated in human serum prior to MIC determination.

S. epidermidis GC 4935 = assay: MIC, broth microdilution; conditions: Staphylococcus epidermidis
E. coli GC 2233 = assay: MIC, broth microdilution; conditions: Escherichia coli
E. coli GC 4559 = assay: MIC, broth microdilution; conditions: Escherichia coli
E. coli GC 2234 = assay: MIC, broth microdilution; conditions: Escherichia coli
S. aureus GC 2216 = assay: MIC, broth microdilution; conditions: Staphylococcus aureus
Staph. aureus Smith = assay: In vivo activity (oral, iv; ED50) against Staph. aureus Smith in mice
Protocol: Representative examples of compounds of Formula I were tested for the oral efficacy using S. aureus Smith in mice.

P. aeruginosa GC 2214 = assay: MIC, broth microdilution; conditions: Pseudomonas aeruginosa
E. coli GC 2270 = assay: MIC, broth microdilution; conditions: Escherichia coli
S. aureus GC 1079 = assay: MIC, broth microdilution; conditions: Staphylococcus aureus
E. faecalis GC 2242 = assay: MIC, broth microdilution; conditions: Enterococcus faecalis
E. coli GC 2271 = assay: MIC, broth microdilution; conditions: Escherichia coli
S. aureus GC 6335 = assay: MIC, broth microdilution; conditions: Staphylococcus aureus
S. aureus GC 1131 = assay: MIC, broth microdilution; conditions: Staphylococcus aureus
c. albicans GC 3066 = assay: MIC, broth microdilution
E. faecium GC 4556 = assay: MIC, broth microdilution; conditions: Enterococcus faecium
E. coli GC 2236 = assay: MIC, broth microdilution; conditions: Escherichia coli
E. coli GC 1073 = assay: MIC, broth microdilution; conditions: Escherichia coli

Structure (SMILES): CCCN(CC(=O)Nc1cc(N(C)C)c2c(c1O)C(=O)C1=C(O)[C@]3(O)C(=O)C(C(N)=O)=C(O)C(N(C)C)C3CC1C2)C(=O)OCc1oc(=O)oc1-c1ccccc1 (stereo in doubt) [Example 110, (2-oxo-5-phenyl-1,3-dioxol-4-yl)methyl 2-{[(7R,10aS)-9-(aminocarbonyl)-4,7-bis(dimethylamino)-1,8,10a,11-tetrahydroxy-10,12-dioxo-5,5a,6,6a,7,10,10a,12-octahydrotetracen-2-yl]amino}-2-oxoethyl(propyl)carbamate]
- MIC (S. pyogenes GC 4563; GC4563, pre-incubation in mouse serum): 0.12 µg/mL (≈ 0.152 µM)
- MIC (S. pyogenes GC 4563; GC4563, pre-incubation in water): < 0.06 µg/mL
- MIC (S. pneumoniae+ GC 4465; pre-incubation in mouse serum): 4 µg/mL (≈ 5.06 µM)
- MIC (S. pneumoniae+ GC 4465; pre-incubation in water): 2 µg/mL (≈ 2.53 µM)
- MIC (E. coli GC 2235; GC2235, pre-incubation in mouse serum): 0.5 µg/mL (≈ 0.633 µM)
- MIC (E. coli GC 2235; GC2235, pre-incubation in water): 1 µg/mL (≈ 1.27 µM)
- MIC (S. epidermidis GC 4935; GC4935, pre-incubation in mouse serum): 4 µg/mL (≈ 5.06 µM)
- MIC (S. epidermidis GC 4935; GC4935, pre-incubation in water): 8 µg/mL (≈ 10.1 µM)
- MIC (E. coli GC 2233; GC2233, pre-incubation in mouse serum): 0.5 µg/mL (≈ 0.633 µM)
- MIC (E. coli GC 2233; GC2233, pre-incubation in water): 1 µg/mL (≈ 1.27 µM)
- MIC (E. coli GC 4559; GC4559, pre-incubation in mouse serum): 2 µg/mL (≈ 2.53 µM)
- MIC (E. coli GC 4559; GC4559, pre-incubation in water): 2 µg/mL (≈ 2.53 µM)
- MIC (E. coli GC 2234; GC2234, pre-incubation in mouse serum): 1 µg/mL (≈ 1.27 µM)
- MIC (E. coli GC 2234; GC2234, pre-incubation in water): 2 µg/mL (≈ 2.53 µM)
- MIC (S. aureus GC 2216; GC2216, pre-incubation in mouse serum): 2 µg/mL (≈ 2.53 µM)
- MIC (S. aureus GC 2216; GC2216, pre-incubation in water): 4 µg/mL (≈ 5.06 µM)
- ED50 (Staph. aureus Smith; Staphylococcus aureus, in Mus musculus, po, read-out: ED50 Staph Smith SOD): 31.9 mg/kg
- ED50 (Staph. aureus Smith; iv, read-out: ED50 Staph Smith SIV): 0.6 mg/kg
- MIC (P. aeruginosa GC 2214; GC2214, pre-incubation in mouse serum): > 64 µg/mL
- MIC (P. aeruginosa GC 2214; GC2214, pre-incubation in water): > 64 µg/mL
- MIC (E. coli GC 2270; GC2270, pre-incubation in mouse serum): 1 µg/mL (≈ 1.27 µM)
- MIC (E. coli GC 2270; GC2270, pre-incubation in water): 1 µg/mL (≈ 1.27 µM)
- MIC (S. aureus GC 1079; GC1079, pre-incubation in mouse serum): 16 µg/mL (≈ 20.3 µM)
- MIC (S. aureus GC 1079; GC1079, pre-incubation in water): 16 µg/mL (≈ 20.3 µM)
- MIC (E. faecalis GC 2242; GC2242, pre-incubation in mouse serum): 1 µg/mL (≈ 1.27 µM)
- MIC (E. faecalis GC 2242; GC2242, pre-incubation in water): 1 µg/mL (≈ 1.27 µM)
- MIC (E. coli GC 2271; GC2271, pre-incubation in mouse serum): 1 µg/mL (≈ 1.27 µM)
- MIC (E. coli GC 2271; GC2271, pre-incubation in water): 2 µg/mL (≈ 2.53 µM)
- MIC (S. aureus GC 6335; GC6335, pre-incubation in mouse serum): 8 µg/mL (≈ 10.1 µM)
- MIC (S. aureus GC 6335; GC6335, pre-incubation in water): 8 µg/mL (≈ 10.1 µM)
- MIC (S. aureus GC 1131; GC1131, pre-incubation in mouse serum): 2 µg/mL (≈ 2.53 µM)
- MIC (S. aureus GC 1131; GC1131, pre-incubation in water): 4 µg/mL (≈ 5.06 µM)
- MIC (c. albicans GC 3066; Candida albicans, GC3066): > 64 µg/mL
- MIC (c. albicans GC 3066; pre-incubation in water): >64 UG/ML
- MIC (E. faecium GC 4556; GC4556, pre-incubation in mouse serum): 1 µg/mL (≈ 1.27 µM)
- MIC (E. faecium GC 4556; GC4556, pre-incubation in water): 2 µg/mL (≈ 2.53 µM)
- MIC (E. coli GC 2236; GC2236, pre-incubation in mouse serum): 1 µg/mL (≈ 1.27 µM)
- MIC (E. coli GC 2236; GC2236, pre-incubation in water): 2 µg/mL (≈ 2.53 µM)
- MIC (E. coli GC 1073; GC1073, pre-incubation in mouse serum): 2 µg/mL (≈ 2.53 µM)
- MIC (E. coli GC 1073; GC1073, pre-incubation in water): 8 µg/mL (≈ 10.1 µM)
